The values that follow come from patent US20250101019A1 (Insilico Medicine IP Limited, priority 2022, published 2025).

The target in assay [1] is T1, ENPP1 (Homo sapiens (Human), UniProt P22413). The experiment in a line: ATP-Glo enzymatic assay (ATP substrate, AMP-Glo readout). Type of assay: biochemical. To be noted: 25° C. for 60 min, 50 mM Tris pH 8.8. Here is the method:
(§1) Example A: Enzymatic Assay
(§2) • 1. Diluted compounds in DMSO by hand for 11 points, 3 folds dilution. Then transferred 0.02 μL compounds to 384 assay plate by ECHO. • 2. Added 2 μL specified concentration of ENPP1 to 384 assay plate. Centrifuged 1000 RPM for 1 min. • 3. Added 2 μL specified concentration of ATP to the assay plate. Centrifuged 1000 RPM for 1 min. • 4. Incubated at 25° C. for 60 min. • 5. Added 4 μL AMP-Glo Reagent to the assay plates. • 6. Centrifuged 1000 RPM for 1 min, incubate at 25° C. for 1 hours. • 7. Added 8 μL Kinase Detection Reagent to the assay plates. • 8. Centrifuged 1000 RPM for 1 min, incubated at 25° C. for 1 hours. The final assay reaction mixture contained a buffer of 50 mM Tris pH 8.8, 250 mM NaCl and 0.1% BSA • 9. Read on Envision for US LUM as RLU. • 10. Analyzed the raw data using the equation (V. Data analysis). cGAMP-Glo Assay: • 1. Diluted compounds in DMSO by hand for 11 points, 3 folds dilution. Then transferred 0.02 μL compounds to 384 assay plate by ECHO. • 2. Added 2 μL specified concentration of ENPP1 to 384 assay plate, centrifuged 1000 RPM for 1 min. • 3. Added 2 μL specified concentration of 2′3′-cGAMP to the assay plate, centrifuged 1000 RPM for 1 min. • 4. Incubated at 25° C. for 60 min. • 5. Added 4 μL AMP-Glo Reagent to the assay plates. • 6. Centrifuged 1000 RPM for 1 min, incubated at 25° C. for 1 hours. • 7. Added 8 μL Kinase Detection Reagent to the assay plates. • 8. Centrifuged 1000 RPM for 1 min, incubate at 25° C. for 1 hours. The final assay reaction mixture contained a buffer of 50 mM Tris pH 8.8, 250 mM NaCl and 0.1% BSA • 9. Read on Envision for US LUM as RLU. • 10. Analyzed the raw data using the equation (V. Data analysis).

Assay [2] has as its target T1, ENPP1. The experiment in a line: cGAMP-Glo enzymatic assay (2′3′-cGAMP substrate, AMP-Glo readout). Type of assay: biochemical. To be noted: substrate 2′3′-cGAMP; 25° C. for 60 min; 50 mM Tris pH 8.8. The protocol:
as §1, §2

SMILES strings stand for the structures.

T1 sequence (P22413 whole entry, species assumed): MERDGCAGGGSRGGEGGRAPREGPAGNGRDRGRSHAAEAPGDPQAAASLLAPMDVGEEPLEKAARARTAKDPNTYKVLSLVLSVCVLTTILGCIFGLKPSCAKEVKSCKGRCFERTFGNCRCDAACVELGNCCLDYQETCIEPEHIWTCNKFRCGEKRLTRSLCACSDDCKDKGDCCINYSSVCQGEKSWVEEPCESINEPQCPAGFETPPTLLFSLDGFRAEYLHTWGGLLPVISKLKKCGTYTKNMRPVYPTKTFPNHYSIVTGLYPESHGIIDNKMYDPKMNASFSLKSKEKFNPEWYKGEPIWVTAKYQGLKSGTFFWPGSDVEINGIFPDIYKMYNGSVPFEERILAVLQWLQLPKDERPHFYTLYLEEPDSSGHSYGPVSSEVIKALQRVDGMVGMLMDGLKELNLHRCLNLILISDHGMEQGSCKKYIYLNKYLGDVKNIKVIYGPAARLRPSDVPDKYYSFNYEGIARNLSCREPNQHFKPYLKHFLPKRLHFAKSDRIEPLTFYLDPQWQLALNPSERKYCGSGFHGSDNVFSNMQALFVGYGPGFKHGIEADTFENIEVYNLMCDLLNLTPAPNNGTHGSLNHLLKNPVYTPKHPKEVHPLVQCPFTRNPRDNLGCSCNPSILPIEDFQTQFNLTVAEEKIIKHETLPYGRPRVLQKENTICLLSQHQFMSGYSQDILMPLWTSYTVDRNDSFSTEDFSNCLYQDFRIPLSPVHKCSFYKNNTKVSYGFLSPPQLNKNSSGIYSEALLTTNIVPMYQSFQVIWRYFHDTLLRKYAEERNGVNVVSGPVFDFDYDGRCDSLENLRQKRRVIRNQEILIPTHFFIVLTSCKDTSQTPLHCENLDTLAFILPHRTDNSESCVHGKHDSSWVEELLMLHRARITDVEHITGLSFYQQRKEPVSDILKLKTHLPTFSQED

Broadly, the IC50 is the concentration that inhibits the measured activity by half. A high value points to lower potency. As to `Cc1ncc2nc(C)n(Cc3c(F)cc(S(N)(=O)=O)cc3F)c2c1-c1ccc(F)cc1` [Example 46, 3,5-difluoro-4-((7-(4-fluorophenyl)-2,6-dimethyl-1H-imidazo[4,5-c]pyridin-1-yl)methyl)benzenesulfonamide], the IC50 against ENPP1 [1] and at ENPP1 [2] was less than 1 nM throughout.

For the compound `COc1ncc2c(C)cn(Cc3ccc(S(N)(=O)=O)cc3)c2c1-c1ccccc1` [Example 10, 4-((6-methoxy-3-methyl-7-phenyl-1H-pyrrolo[3,2-c]pyridin-1-yl)methyl)benzene sulfonamide], the concentration for half-maximal inhibition (IC50) against ENPP1 [1] and at ENPP1 [2] was less than 1 nM each time.

`COc1ncc2nc(C)n(Cc3c(F)cc(S(N)(=O)=O)cc3F)c2c1-c1ccccc1` [Example 24, 3,5-difluoro-4-((6-methoxy-2-methyl-7-phenyl-1H-imidazo[4,5-c]pyridin-1-yl)methyl)benzenesulfonamide]: the 50% inhibitory concentration (IC50) against ENPP1 [1] and against ENPP1 [2] was less than 1 nM throughout.

As to `Cc1nc2cncc(-c3ccccc3)c2n1Cc1ccc(S(N)(=O)=O)cc1` [Example 40, 4-((2-methyl-7-phenyl-1H-imidazo[4,5-c]pyridin-1-yl)methyl)benzene sulfonamide], the 50% inhibitory concentration (IC50) against ENPP1 [1] and against ENPP1 [2] was less than 1 nM each time.

As for `COc1ncc2nc(C)n(C(C)c3ccc(S(N)(=O)=O)cc3)c2c1-c1ccccc1` (stereo not shown) [Example 35, 4-(1-(6-methoxy-2-methyl-7-phenyl-1H-imidazo[4,5-c]pyridin-1-yl)ethyl) benzenesulfonamide], the IC50 against ENPP1 [1] and against ENPP1 [2] was 1 to 10 nM each time.

Consider `Cc1ncc2nc(C)n(Cc3c(F)cc(S(N)(=O)=O)cc3F)c2c1-c1cccc(F)c1` [Example 45, 3,5-difluoro-4-((7-(3-fluorophenyl)-2,6-dimethyl-1H-imidazo[4,5-c]pyridin-1-yl)methyl)benzenesulfonamide], for which the IC50 against ENPP1 [1] and at ENPP1 [2] was less than 1 nM each time.

For the compound `Cc1ncc2nc(C(F)(F)F)n(Cc3c(F)cc(S(N)(=O)=O)cc3F)c2c1-c1ccccc1` [Example 34, 3,5-difluoro-4-((6-methyl-7-phenyl-2-(trifluoromethyl)-1H-imidazo[4,5-c]pyridin-1-yl)methyl)benzenesulfonamide], the half-inhibitory concentration (IC50) at ENPP1 [1] and at ENPP1 [2] was less than 1 nM in each case.

`COc1ncc2nc(C)n(Cc3ncc(S(N)(=O)=O)cc3F)c2c1-c1ccccc1` [Example 73, 5-fluoro-6-((6-methoxy-2-methyl-7-phenyl-1H-imidazo[4,5-c]pyridin-1-yl)methyl)pyridine-3-sulfonamide]: the concentration for half-maximal inhibition (IC50) against ENPP1 [1] and against ENPP1 [2] was less than 1 nM in each case.

`Cc1ncc2nc(C)n(Cc3ccc(S(N)(=O)=O)cc3)c2c1-c1ccccc1` [Example 31, 4-((2,6-dimethyl-7-phenyl-1H-imidazo[4,5-c]pyridin-1-yl)methyl)benzene sulfonamide]: the concentration for half-maximal inhibition (IC50) against ENPP1 [1] and against ENPP1 [2] was less than 1 nM in each case.

With `Cc1ncc2nc(CC3CC3)n(Cc3c(F)cc(S(N)(=O)=O)cc3F)c2c1-c1ccccc1` [Example 51, 4-((2-(cyclopropylmethyl)-6-methyl-7-phenyl-1H-imidazo[4,5-c]pyridin-1-yl)methyl)-3,5-difluorobenzenesulfonamide], the half-maximal inhibitory concentration (IC50) against ENPP1 [1] and at ENPP1 [2] was less than 1 nM throughout.

In the case of `Cc1ncc2nc(C)n(Cc3c(F)cc(S(N)(=O)=O)cc3F)c2c1-c1ccccc1` [Example 26, 4-((2,6-dimethyl-7-phenyl-1H-imidazo[4,5-c]pyridin-1-yl)methyl)-3,5-difluorobenzenesulfonamide], the IC50 against ENPP1 [1] and against ENPP1 [2] was less than 1 nM throughout.

For `Cc1ncc2nc(C)n(Cc3c(F)cc(S(N)(=O)=O)cc3F)c2c1C1CC1` [Example 52, 4-((7-cyclopropyl-2,6-dimethyl-1H-imidazo[4,5-c]pyridin-1-yl)methyl)-3,5-difluorobenzenesulfonamide], the IC50 against ENPP1 [1] and against ENPP1 [2] was less than 1 nM throughout.

On to `COc1ncc2ccn(Cc3ccc(S(N)(=O)=O)cc3)c2c1-n1ccc(C)n1` [Example 8, 4-((6-methoxy-7-(3-methyl-1H-pyrazol-1-yl)-1H-pyrrolo[3,2-c]pyridin-1-yl)methyl)benzenesulfonamide], for which the IC50 against ENPP1 [1] and against ENPP1 [2] was 10 to 100 nM each time.

As to `Cc1ncc2c(c1-c1ccccc1)n(Cc1ccc(S(N)(=O)=O)cc1)c(=O)n2C` [Example 20, 4-((3,6-dimethyl-2-oxo-7-phenyl-2,3-dihydro-1H-imidazo[4,5-c]pyridin-1-yl)methyl)benzenesulfonamide], the concentration for half-maximal inhibition (IC50) at ENPP1 [1] and against ENPP1 [2] was less than 1 nM each time.

For the compound `Cc1ncc2ncn(Cc3c(F)cc(S(N)(=O)=O)cc3F)c2c1-c1ccccc1` [Example 27, 3,5-difluoro-4-((6-methyl-7-phenyl-1H-imidazo[4,5-c]pyridin-1-yl)methyl)benzene sulfonamide], the IC50 at ENPP1 [1] and against ENPP1 [2] was less than 1 nM each time.

As to `Cc1ncc2nc(C(F)F)n(Cc3c(F)cc(S(N)(=O)=O)cc3F)c2c1-c1ccccc1` [Example 38, 4-((2-(difluoromethyl)-6-methyl-7-phenyl-1H-imidazo[4,5-c]pyridin-1-yl)methyl)-3,5-difluorobenzenesulfonamide], the 50% inhibitory concentration (IC50) at ENPP1 [1] and at ENPP1 [2] was less than 1 nM each time.

As to `Cc1ncc2c(c1C1=CCCC1)n(Cc1c(F)cc(S(N)(=O)=O)cc1F)c(=O)n2C` [Example 62, 4-((7-(cyclopent-1-en-1-yl)-3,6-dimethyl-2-oxo-2,3-dihydro-1H-imidazo[4,5-c]pyridin-1-yl)methyl)-3,5-difluorobenzenesulfonamide], the IC50 against ENPP1 [1] and against ENPP1 [2] was less than 1 nM in each case.

In the case of `COc1ncc2c(C)cn(Cc3ccc(NS(N)(=O)=O)cc3)c2c1-c1ccn(C)n1` [Example 1, N-(4-((6-methoxy-3-methyl-7-(1-methyl-1H-pyrazol-3-yl)-1H-pyrrolo[3,2-c]pyridin-1-yl)methyl)phenyl) sulfamide], the IC50 against ENPP1 [1] fell in the range of 100 to 1000 nM; at ENPP1 [2], 10 to 100 nM.

For `Cc1ncc2nc(C)n(Cc3ccc(S(N)(=O)=O)cn3)c2c1-c1ccccc1` [Example 65, 6-((2,6-dimethyl-7-phenyl-1H-imidazo[4,5-c]pyridin-1-yl)methyl)pyridine-3-sulfonamide], the IC50 at ENPP1 [1] and against ENPP1 [2] was less than 1 nM each time.

`COc1ncc2c(c1C1=CCCC1)n(Cc1c(F)cc(S(N)(=O)=O)cc1F)c(=O)n2C` [Example 61, 4-((7-(cyclopent-1-en-1-yl)-6-methoxy-3-methyl-2-oxo-2,3-dihydro-1H-imidazo[4,5-c]pyridin-1-yl)methyl)-3,5-difluorobenzenesulfonamide]: the IC50 at ENPP1 [1] and against ENPP1 [2] was less than 1 nM in each case.

In the case of `COc1ncc2c(c1-c1ccccc1)n(Cc1ccc(S(N)(=O)=O)cn1)c(=O)n2C` [Example 82, 6-((6-methoxy-3-methyl-2-oxo-7-phenyl-2,3-dihydro-1H-imidazo[4,5-c]pyridin-1-yl)methyl)pyridine-3-sulfonamide], the 50% inhibitory concentration (IC50) on ENPP1 [1] and against ENPP1 [2] was less than 1 nM in each case.

Consider `Cc1cc(Cn2c(C3CC3)nc3cnc(C)c(-c4ccccc4)c32)ccc1S(N)(=O)=O` [Example 55, 4-((2-cyclopropyl-6-methyl-7-phenyl-1H-imidazo[4,5-c]pyridin-1-yl)methyl)-2-methylbenzenesulfonamide], for which the IC50 against ENPP1 [1] and against ENPP1 [2] was less than 1 nM throughout.

On to `Cc1ncc(-c2ccccc2)c2c1ncn2Cc1ccc(S(N)(=O)=O)cc1` [Example 30, 4-((4-methyl-7-phenyl-1H-imidazo[4,5-c]pyridin-1-yl)methyl)benzene sulfonamide], for which the IC50 at ENPP1 [1] and against ENPP1 [2] was less than 1 nM throughout.

In the case of `COc1ncc2c(C)cn(Cc3ccc(S(N)(=O)=O)cc3)c2c1-c1ccccn1` [Example 13, 4-((6-methoxy-3-methyl-7-(pyridin-2-yl)-1H-pyrrolo[3,2-c]pyridin-1-yl)methyl)benzenesulfonamide], the IC50 against ENPP1 [1] and against ENPP1 [2] was 1 to 10 nM each time.

`Cc1ncc2nc(CN3CCCC3)n(Cc3c(F)cc(S(N)(=O)=O)cc3F)c2c1-c1ccccc1` [Example 60, 3,5-difluoro-4-((6-methyl-7-phenyl-2-(pyrrolidin-1-ylmethyl)-1H-imidazo[4,5-c]pyridin-1-yl)methyl)benzenesulfonamide]: the IC50 against ENPP1 [1] and on ENPP1 [2] was less than 1 nM throughout.

As to `COc1ncc2c(C)cn(Cc3c(F)cc(S(N)(=O)=O)cc3F)c2c1-c1ccn(C)n1` [Example 4, 3,5-difluoro-4-((6-methoxy-3-methyl-7-(1-methyl-1H-pyrazol-3-yl)-1H-pyrrolo[3,2-c]pyridin-1-yl)methyl)benzene sulfonamide], the values for the IC50 against ENPP1 [1] and against ENPP1 [2] were 1 to 10 nM and less than 1 nM, respectively.
